Source: patent US9573957B2 (Boehringer Ingelheim International GmbH, priority 2013, dated 2017)

Columns and labels:
[1] = biological target: human LTA4 hydrolase (Homo sapiens (Human), UniProt P09960); experiment: LTA4H Enzyme assay (peptidase, Arg-AMC cleavage); format: biochemical; conditions: LTA4H Enzyme 1 nM, Arg-AMC substrate 50 μM, room temperature 1 h, fluorescence
Summary of the method: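 Aminomethylcoumarin release measured fluorimetrically (380/460 nm) after 1 h at room temperature. Reaction: 1 nM final enzyme, 50 μM final Arg-AMC and compound in Tris-HCl pH 7.5 with 100 mM KCl and 0.5% BSA.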

[2] = tested on: synthesis of LTB4 in human whole blood; experiment: LTB4 production inhibition assay in human whole blood (HWB); format: cell-based; conditions: heparinized human whole blood, 15 min at 37° C., Calcimycin 20 μM 30 min, plasma LTB4 by HTRF
Summary of the method: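 LTB4 in plasma read by HTRF immunoassay after centrifugation. Before that, compound sat with heparinized human whole blood 15 min at 37° C, followed by 30 min at 37° C with 20 μM (final) calcimycin.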

Chain of human LTA4 hydrolase (P09960 whole entry): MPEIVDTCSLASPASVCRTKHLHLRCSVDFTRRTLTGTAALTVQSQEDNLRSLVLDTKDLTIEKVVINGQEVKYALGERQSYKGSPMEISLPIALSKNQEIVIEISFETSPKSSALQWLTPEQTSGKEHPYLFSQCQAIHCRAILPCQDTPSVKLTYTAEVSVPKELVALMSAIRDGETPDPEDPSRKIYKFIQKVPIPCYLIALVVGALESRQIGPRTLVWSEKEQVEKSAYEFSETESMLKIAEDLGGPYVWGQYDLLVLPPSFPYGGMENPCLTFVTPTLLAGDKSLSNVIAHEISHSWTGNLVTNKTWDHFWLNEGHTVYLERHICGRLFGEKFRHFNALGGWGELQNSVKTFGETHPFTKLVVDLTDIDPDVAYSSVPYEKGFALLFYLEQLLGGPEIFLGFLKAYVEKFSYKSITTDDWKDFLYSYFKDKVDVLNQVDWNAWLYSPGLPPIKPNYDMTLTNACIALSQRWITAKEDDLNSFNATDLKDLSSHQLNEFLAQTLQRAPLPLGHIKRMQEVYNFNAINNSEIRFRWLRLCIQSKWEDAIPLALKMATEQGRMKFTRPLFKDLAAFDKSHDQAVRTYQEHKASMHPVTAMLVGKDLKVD

| SMILES | IC50 [1] [nM] | IC50 [2] [nM] |
| --- | --- | --- |
| C[C@@H](O)C(=O)N1CCN(CCc2coc3cc(Oc4ccc(-c5ccn[nH]5)cn4)ccc23)CC1 [Example 92, (R)-2-Hydroxy-1-[4-(2-{6-[5-(2H-pyrazol-3-yl)-pyridin-2-yloxy]-benzofuran-3-yl}-ethyl)-piperazin-1-yl]-propan-1-one] | 1.1 | 470 |
| O=C(N1CCN(CCc2coc3cc(Oc4ccc(-c5ccn[nH]5)cn4)ccc23)CC1)C1(O)CC1 [Example 93, (1-Hydroxy-cyclopropyl)-[4-(2-{6-[5-(2H-pyrazol-3-yl)-pyridin-2-yloxy]-benzofuran-3-yl}-ethyl)-piperazin-1-yl]-methanone] | 0.91 | 530 |
| C[C@@H](O)C(=O)N1CCN(Cc2cn3cc(Oc4ccc(-c5ccn[nH]5)cc4)ccc3n2)CC1 [Example 94, (R)-2-Hydroxy-1-(4-{6-[4-(2H-pyrazol-3-yl)-phenoxy]-imidazo[1,2-a]pyridin-2-ylmethyl}-piperazin-1-yl)-propan-1-one] | 0.87 | 350 |
| CC(=O)N1CCN(Cc2cn3cc(Oc4ccc(-c5ccn[nH]5)cc4)ccc3n2)CC1 [Example 95, 1-(4-{6-[4-(2H-Pyrazol-3-yl)-phenoxy]-imidazo[1,2-a]pyridin-2-ylmethyl}-piperazin-1-yl)-ethanone] | 0.59 | 280 |
| O=C(N1CCN(Cc2cn3cc(Oc4ccc(-c5ccn[nH]5)cc4)ccc3n2)CC1)C1(O)CC1 [Example 96, (1-Hydroxy-cyclopropyl)-(4-{6-[4-(2H-pyrazol-3-yl)-phenoxy]-imidazo[1,2-a]pyridin-2-ylmethyl}-piperazin-1-yl)-methanone] | 1.2 | 990 |
| CC(=O)N1CCCN(Cc2coc3cc(Oc4ccc(-c5ccn[nH]5)cn4)ccc23)CC1 [Example 97, 1-(4-{6-[5-(2H-Pyrazol-3-yl)-pyridin-2-yloxy]-benzofuran-3-ylmethyl}-[1,4]diazepan-1-yl)-ethanone] | 0.58 | 210 |
| CN(C(=O)CO)[C@@H]1CCN(Cc2ccc3cc(Oc4ccc(-c5ccn[nH]5)cn4)ccc3n2)C1 [Example 98] | 0.72 | 120 |
| CN(C(=O)CO)[C@H]1CCN(Cc2ccc3cc(Oc4ccc(-c5ccn[nH]5)cn4)ccc3n2)C1 [Example 99] | 0.86 | 140 |
| CN(Cc1ccc2cc(Oc3ccc(-c4ccn[nH]4)cn3)ccc2n1)[C@@H]1CCN(C(=O)CO)C1 [Example 100, 2-Hydroxy-1-[(R)-3-(methyl-{6-[5-(2H-pyrazol-3-yl)-pyridin-2-yloxy]-quinolin-2-ylmethyl}-amino)-pyrrolidin-1-yl]-ethanone] | 0.92 | 170 |
| CN(Cc1ccc2cc(Oc3ccc(-c4ccn[nH]4)cn3)ccc2n1)[C@H]1CCN(C(=O)CO)C1 [Example 101, 2-Hydroxy-1-[(S)-3-(methyl-{6-[5-(2H-pyrazol-3-yl)-pyridin-2-yloxy]-quinolin-2-ylmethyl}-amino)-pyrrolidin-1-yl]-ethanone] | 2 | 230 |
| O=C(CO)N1CCC2(CCN(Cc3ccc4cc(Oc5ccc(-c6ccn[nH]6)cn5)ccc4n3)C2)C1 (stereo not drawn) [Example 102, 2-Hydroxy-1-(7-{6-[5-(2H-pyrazol-3-yl)-pyridin-2-yloxy]-quinolin-2-ylmethyl}-2,7-diaza-spiro[4.4]non-2-yl)-ethanone] | 0.66 | 150 |
| CNC(=O)C1CCN(Cc2coc3cc(Oc4ccc(-c5ccn[nH]5)cn4)ccc23)CC1 [Example 103, 1-{6-[5-(2H-Pyrazol-3-yl)-pyridin-2-yloxy]-benzofuran-3-ylmethyl}-piperidine-4-carboxylic acid methylamide] | 0.49 | 170 |
| CC(=O)NC1CCN(Cc2coc3cc(Oc4ccc(-c5ccn[nH]5)cn4)ccc23)CC1 [Example 104, N-(1-{6-[5-(2H-Pyrazol-3-yl)-pyridin-2-yloxy]-benzofuran-3-ylmethyl}-piperidin-4-yl)-acetamide] | 0.56 | 150 |
| CS(=O)(=O)NC1CCN(Cc2coc3cc(Oc4ccc(-c5ccn[nH]5)cn4)ccc23)CC1 [Example 105, N-(1-{6-[5-(2H-Pyrazol-3-yl)-pyridin-2-yloxy]-benzofuran-3-ylmethyl}-piperidin-4-yl)-methanesulfonamide] | 0.81 | 210 |
| CC(=O)NCC1CCN(Cc2coc3cc(Oc4ccc(-c5ccn[nH]5)cn4)ccc23)CC1 [Example 106, N-(1-{6-[5-(2H-Pyrazol-3-yl)-pyridin-2-yloxy]-benzofuran-3-ylmethyl}-piperidin-4-ylmethyl)-acetamide] | 0.38 | 120 |
| CC(=O)N1CCC(CNCc2coc3cc(Oc4ccc(-c5ccn[nH]5)cn4)ccc23)CC1 [Example 107, 1-{4-[({6-[5-(2H-Pyrazol-3-yl)-pyridin-2-yloxy]-benzofuran-3-ylmethyl}-amino)-methyl]-piperidin-1-yl}-ethanone] | 0.7 | 210 |
| CC(=O)N1CCC(NCc2coc3cc(Oc4ccc(-c5ccn[nH]5)cn4)ccc23)CC1 [Example 108, 1-[4-({6-[5-(2H-Pyrazol-3-yl)-pyridin-2-yloxy]-benzofuran-3-ylmethyl}-amino)-piperidin-1-yl]-ethanone] | 0.71 | 180 |
| O=C1[C@@H](O)CCN1C1CCN(Cc2coc3cc(Oc4ccc(-c5ccn[nH]5)cn4)ccc23)CC1 [Example 109, (S)-3-Hydroxy-1-(1-{6-[5-(2H-pyrazol-3-yl)-pyridin-2-yloxy]-benzofuran-3-ylmethyl}-piperidin-4-yl)-pyrrolidin-2-one] | 0.36 | 140 |
| CN1CCC2(CCN(Cc3coc4cc(Oc5ccc(-c6ccn[nH]6)cn5)ccc34)CC2)C1=O [Example 110, 2-Methyl-8-{6-[5-(2H-pyrazol-3-yl)-pyridin-2-yloxy]-benzofuran-3-ylmethyl}-2,8-diaza-spiro[4.5]decan-1-one] | 0.22 | 130 |
| O=C(CN1CCN(Cc2coc3cc(Oc4ccc(-c5ccn[nH]5)cn4)ccc23)CC1)N1CCCC1 [Example 111, 2-(4-{6-[5-(2H-Pyrazol-3-yl)-pyridin-2-yloxy]-benzofuran-3-ylmethyl}-piperazin-1-yl)-1-pyrrolidin-1-yl-ethanone] | 0.68 | 170 |
| CC(=O)N1CCN(C(=O)c2coc3cc(Oc4ccc(-c5ccn[nH]5)cn4)ccc23)CC1 [Example 112, 1-(4-{6-[5-(2H-Pyrazol-3-yl)-pyridin-2-yloxy]-benzofuran-3-carbonyl}-piperazin-1-yl)-ethanone] | 1.9 | 350 |
| CN(C(=O)CO)[C@@H]1CCN(Cc2coc3cc(Oc4ccc(-c5ccn[nH]5)cn4)ccc23)C1 [Example 113, 2-Hydroxy-N-methyl-N-((R)-1-{6-[5-(2H-pyrazol-3-yl)-pyridin-2-yloxy]-benzofuran-3-ylmethyl}-pyrrolidin-3-yl)-acetamide] | 0.42 | 160 |
| CN(C(=O)CO)[C@H]1CCN(Cc2coc3cc(Oc4ccc(-c5ccn[nH]5)cn4)ccc23)C1 [Example 114, 2-Hydroxy-N-methyl-N-((S)-1-{6-[5-(2H-pyrazol-3-yl)-pyridin-2-yloxy]-benzofuran-3-ylmethyl}-pyrrolidin-3-yl)-acetamide] | 0.56 | 150 |
| O=C(CO)N1CCC2(CCN(Cc3coc4cc(Oc5ccc(-c6ccn[nH]6)cn5)ccc34)C2)C1 (stereo not drawn) [Example 115, 2-Hydroxy-1-(7-{6-[5-(2H-pyrazol-3-yl)-pyridin-2-yloxy]-benzofuran-3-ylmethyl}-2,7-diaza-spiro[4.4]non-2-yl)-ethanone] | 0.43 | 120 |
| N#CC1(C(=O)N2CCN(Cc3ccc4cc(Oc5ccc(-c6ccn[nH]6)cn5)ccc4n3)CC2)CC1 [Example 116, 1-(4-{6-[5-(2H-Pyrazol-3-yl)-pyridin-2-yloxy]-quinolin-2-ylmethyl}-piperazine-1-carbonyl)-cyclopropanecarbonitrile] | 0.87 | 240 |
| C[C@H](O)CC(=O)N1CCN(Cc2ccc3cc(Oc4ccc(-c5ccn[nH]5)cn4)ccc3n2)CC1 [Example 117, (S)-3-Hydroxy-1-(4-{6-[5-(2H-pyrazol-3-yl)-pyridin-2-yloxy]-quinolin-2-ylmethyl}-piperazin-1-yl)-butan-1-one] | 3.7 | 670 |
| CO[C@@H](C)C(=O)N1CCN(Cc2ccc3cc(Oc4ccc(-c5ccn[nH]5)cn4)ccc3n2)CC1 [Example 118, (S)-2-Methoxy-1-(4-{6-[5-(2H-pyrazol-3-yl)-pyridin-2-yloxy]-quinolin-2-ylmethyl}-piperazin-1-yl)-propan-1-one] | 0.67 | 170 |
| O=C(N1CCN(Cc2ccc3cc(Oc4ccc(-c5ccn[nH]5)cn4)ccc3n2)CC1)C1(O)CCCC1 [Example 119, (1-Hydroxy-cyclopentyl)-(4-{6-[5-(2H-pyrazol-3-yl)-pyridin-2-yloxy]-quinolin-2-ylmethyl}-piperazin-1-yl)-methanone] | 8.6 | 1200 |
| CC(C)[C@@H](O)C(=O)N1CCN(Cc2ccc3cc(Oc4ccc(-c5ccn[nH]5)cn4)ccc3n2)CC1 [Example 120, (R)-2-Hydroxy-3-methyl-1-(4-{6-[5-(2H-pyrazol-3-yl)-pyridin-2-yloxy]-quinolin-2-ylmethyl}-piperazin-1-yl)-butan-1-one] | 5.9 | 700 |
| C[C@@H](O)CC(=O)N1CCN(Cc2ccc3cc(Oc4ccc(-c5ccn[nH]5)cn4)ccc3n2)CC1 [Example 121, (R)-3-Hydroxy-1-(4-{6-[5-(2H-pyrazol-3-yl)-pyridin-2-yloxy]-quinolin-2-ylmethyl}-piperazin-1-yl)-butan-1-one] | 4.9 | 620 |
